Laboratory results taken from patent US5922697A, “Compounds, compositions and methods for inhibiting the binding of proteins containing an SH2 domain to cognate phosphorylated proteins” (Warner-Lambert Company, priority 1998, dated 1999).
Where two headings read alike, the source gives them in different places. Square brackets hold non-standard residues; d marks the D form. Peptide text beside a SMILES is read from it. * marks the point of attachment. pY = N[C@@H](Cc1ccc(OP(=O)(O)O)cc1)C(=O)O; NHPhenethyl = c1ccc(CCN*)cc1

Target: T1, Src SH2 (Homo sapiens, UniProt P12931)
T1 construct: glutathione-S-transferase(GST)-Src SH2 fusion protein
Assay: Inhibition of 125I-phosphopeptide binding to immobilized Src SH2
Protocol: The binding affinities of compounds of the present invention to Src SH2 was determined using a competitive radiolabeled phosphopeptide displacement assay.
Binding was performed at room temperature for 20 minutes while continuously inverting the plate. […] Results are expressed as IC50 values in Table 1 below.

[1] = IC50, SRC SH2 Binding, competitive 125I-phosphopeptide displacement, GST-Src SH2 fusion protein, pH 7.5, room temperature, 20 minutes
[2] = competitive 125I-phosphopeptide displacement, GST-Src SH2 fusion protein, pH 7.5, room temperature, 20 minutes; read-out: IC50, SRC SH2 Binding

T1 sequence (P12931 151-248 limits assumed): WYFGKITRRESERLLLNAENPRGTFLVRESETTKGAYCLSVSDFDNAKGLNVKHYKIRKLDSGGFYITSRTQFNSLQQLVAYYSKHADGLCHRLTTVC

Row | SMILES | IC50 [1] [µM] | further results
1 | CC(=O)N[C@@H](Cc1ccc(OP(=O)(O)O)cc1)C(=O)N[C@@H](CCC(=O)O)C(=O)NCCCCC(C)C (relative stereo) [Example 37, [S -(R*,R*)]-4-[2-Acetylamino-3-(4-phosphonooxy-phenyl)-propionylamino]-4-(5-methyl-hexylcarbamoyl)-butyric acid] | 6.7 | 
2 | CC(=O)N[C@@H](Cc1ccc(OP(=O)(O)O)cc1)C(=O)N[C@@H](CCC(=O)O)C(=O)N[C@@H](C)CC1CCCCC1 [Example 2, 4-[(S)-2-Acetylamino-3-(4-phosphonooxy-phenyl)-(S)-propionylamino]-4-(2-cyclohexyl-(S)-1-methylethylcarbamoyl)-butyric acid] | 2.4 | 
3 | CC(=O)N[C@@H](Cc1ccc(OP(=O)(O)O)cc1)C(=O)N[C@@H](CCC(=O)O)C(=O)N(C)[C@@H](C)CC1CCCCC1 [Example 3] | 2.3 | 
4 | CNC(=O)N[C@@H](Cc1ccc(OP(=O)(O)O)cc1)C(=O)N[C@@H](CCC(=O)O)C(=O)N(C)CCCC1CCCCC1 [Example 7, [S-(R*,R*)]-4-[(3-Cyclohexyl-propyl)-methyl-carbamoyl]-4-[2-(3-methyl-ureido)-3-(4-phosphonooxy-phenyl)-propionylamino]-butyric acid] | 2 | 
5 | CCCC[C@H](NC(=O)[C@H](Cc1ccc(OP(=O)(O)O)cc1)NC(C)=O)C(=O)N(C)CCCC1CCCCC1 [Example 9, [S-(R*,R*)]-Phosphoric acid mono-[4-(2-acetylamino-2-{1-[(3-cyclohexyl-propyl)-methyl-carbamoyl]-pentylcarbamoyl}-ethyl)-phenyl] ester] | 6.2 | 
6 | CC(=O)N[C@@H](Cc1ccc(OP(=O)(O)O)cc1)C(=O)N[C@@H](CCC(=O)O)C(=O)NCCc1cccc2c1CCCC2 [Example 13, [S-(R* ,R*)]-4-[2-Acetylamino-3-(4-phosphonooxy-phenyl)-propionylamino]-4-[2-(5,6,7,8-tetrahydro-naphthalen-1-yl)-ethylcarbamoyl]-butyric acid] | 4.4 | 
7 | CC(=O)N[C@@H](Cc1ccc(OP(=O)(O)O)cc1)C(=O)N[C@@H](CCC(=O)O)C(=O)NCCCc1ccccc1 [Example 14, [S-(R*,R*)]-4-[2-Acetylamino-3-(4-phosphonooxy-phenyl)-propionylamino]-4-(3-phenyl-propylcarbamoyl)-butyric acid] |  | IC50 [2]: 10 µM
8 | CC(=O)N[C@@H](Cc1ccc(OP(=O)(O)O)cc1)C(=O)N[C@@H](CCC(=O)O)C(=O)NCc1cccc2ccccc12 [Example 15, [S-(R*,R*)]-4-[2-Acetylamino-3-(4-phosphonooxy-phenyl)-propionylamino]-4-[(naphthalen-1-ylmethyl)-carbamoyl]-butyric acid] | 7 | 
9 | CC(=O)N[C@@H](Cc1ccc(OP(=O)(O)O)cc1)C(=O)N[C@@H](CCC(=O)O)C(=O)NCCc1ccccc1 [Example 16, [S-(R*,R*)]-4-[2-Acetylamino-3-(4-phosphonooxy-phenyl)-propionylamino]-4-phenethylcarbamoyl-butyric acid] (Ac-[pY]-Glu-NHPhenethyl) | 9.8 | 
10 | CC(=O)N[C@@H](Cc1ccc(OP(=O)(O)O)cc1)C(=O)N[C@@H](CCC(=O)O)C(=O)N(C)[C@@H](C)Cc1ccccc1 [Example 17, 4-[(S)-2-Acetylamino-3-(4-phosphonooxy-phenyl)-(S)-propionylamino]-4-[methyl-((S)-1-methyl-2-phenylethyl)-carbamoyl]-butyric acid] | 3.2 | 
11 | CC(=O)N[C@@H](Cc1ccc(OP(=O)(O)O)cc1)C(=O)N[C@@H](CCC(=O)O)C(=O)N[C@@H](C)Cc1ccccc1 [Example 18, 4-[(S)-2-Acetylamino-3-(4-phosphonooxy-phenyl)-(S)-propionylamino]-4-((S)-1-methyl-2-phenylethylcarbamoyl)-butyric acid] | 3.3 | 
12 | CC(=O)N[C@@H](Cc1ccc(OP(=O)(O)O)cc1)C(=O)N[C@@H](CCC(=O)O)C(=O)N(C)CCCc1ccccc1 [Example 19, [S-(R*,R*)]-4-[2-Acetylamino-3-(4-phosphonooxy-phenyl)-propionylamino]-4-[methyl-(3-phenyl-propyl)-carbamoyl]-butyric acid] | 5.6 | 
13 | CC(=O)N[C@@H](Cc1ccc(OP(=O)(O)O)cc1)C(=O)N[C@@H](Cc1ccc(O)cc1)C(=O)NCCCc1ccccc1 [Example 20, [S-(R*,R*)]-Phosphoric acid mono-(4-{2-acetylamino-2-[2-(4-hydroxy-phenyl)-1-(3-phenyl-propylcarbamoyl)-ethyl-carbamoyl]-ethyl}-phenyl) ester] |  | IC50 [2]: 20 µM
14 | COc1ccccc1CCNC(=O)[C@H](CCC(=O)O)NC(=O)[C@H](Cc1ccc(OP(=O)(O)O)cc1)NC(C)=O [Example 21, [S-(R*,R*)]4-[2-Acetylamino-3-(4-phosphonooxy-phenyl)-propionylamino]-4-[2-(2-methoxy-phenyl)-ethylcarbamoyl]-butyric acid] |  | IC50 (read-out: IC50, SRC SH2 Binding; competitive 125I-phosphopeptide displacement, GST-Src SH2 fusion protein, pH 7.5, room temperature, 20 minutes): 5.5 µM
15 | CC(=O)N[C@@H](Cc1ccc(OP(=O)(O)O)cc1)C(=O)N[C@@H](CCC(=O)O)C(=O)NCCc1ccc(C)cc1 [Example 22, [S-(R*,R*)]-4-[2-Acetylamino-3-(4-phosphonooxy-phenyl)-propionylamino]-4-(2-p-tolyl-ethylcarbamoyl)-butyric acid] | 8.3 | 
16 | COc1ccccc1CCN(C)C(=O)[C@H](CCC(=O)O)NC(=O)[C@H](Cc1ccc(OP(=O)(O)O)cc1)NC(C)=O [Example 23, [S-(R*,R*)]-4-[2-Acetylamino-3-(4-phosphonooxy-phenyl)-propionylamino]-4-{[2-(2-methoxy-phenyl)-ethyl]-methyl-carbamoyl}-butyric acid] | 6.2 | 
17 | CC(=O)N[C@@H](Cc1ccc(OP(=O)(O)O)cc1)C(=O)N[C@@H](C)C(=O)N(CCCC(=O)O)CCCC1CCCCC1 [Example 25, [S-(R*,R*)]-4-[{2-[2-Acetylamino-3-(4-phosphonooxy-phenyl)-propionylamino}-propionyl]-(3-cyclohexylpropyl)-amino]-butyric acid] | 7.1 | 
18 | CC(=O)N[C@@H](Cc1ccc(OP(=O)(O)O)cc1)C(=O)N[C@@H](C)C(=O)N(CCCC(=O)O)CCCc1ccccc1 [Example 26, [S-(R*,R*)]-4-[{2-[2-Acetylamino-3-(4-phosphonooxy-phenyl)-propionylamino}-propionyl]-(3-phenyl-propyl)-amino]-butyric acid] | 9.8 | 
19 | CC(=O)N[C@@H](Cc1ccc(OP(=O)(O)O)cc1)C(=O)N[C@@H](C)C(=O)N(CCCCC(=O)O)CCCc1ccccc1 [Example 27, [S-(R*,R*)]-5-[{2-[2-Acetylamino-3-(4-phosphonooxy-phenyl)-propionylamino]-propionyl}-(3-phenyl-propyl)-amino]-pentanoic acid] | 8 | 
20 | CCCCN(CCCc1ccccc1)C(=O)[C@H](C)NC(=O)[C@H](Cc1ccc(OP(=O)(O)O)cc1)NC(C)=O [Example 28, [S-(R*,R*)]-Phosphoric acid mono-[4-(2-acetylamino-2-{1-[butyl-(3-phenyl-propyl)-carbamoyl]-ethylcarbamoyl}-ethyl)-phenyl] ester] | 12 | 
21 | CC(=O)N[C@@H](Cc1ccc(OP(=O)(O)O)cc1)C(=O)N[C@@H](CCC(=O)O)C(=O)NCCCc1ccc(OCC(=O)O)cc1 [Example 29, [S-(R*,R*)]-4-[2-Acetylamino-3-(4-phosphonooxy-phenyl)-propionylamino]-4-[3-(4-carboxymethoxy-phenyl)-propylcarbamoyl]-butyric acid] | 8.3 | 
22 | CC(=O)N[C@@H](Cc1ccc(OP(=O)(O)O)cc1)C(=O)N[C@@H](CCC(=O)O)C(=O)N1CCC[C@H]1Cc1ccccc1 [Example 30] | 5.5 | 
23 | CC(=O)N(C)C(Cc1ccc(OP(=O)(O)O)cc1)C(=O)N[C@@H](CCC(=O)O)C(=O)NCCCc1ccccc1 (stereo partly drawn) [Example 32, 4-[(RS)-2-(Acetyl-methyl-amino)-3-(4-phosphonooxy-phenyl)-(S)-propionylamino]-4-(3-phenylpropylcarbamoyl)-butyric acid] | 9.2 | 
24 | CS(=O)(=O)N[C@@H](Cc1ccc(OP(=O)(O)O)cc1)C(=O)N[C@@H](CCC(=O)O)C(=O)NCCCc1ccccc1 [Example 33, [S-(R*,R*)]-4-[2-Methanesulfonylamino-3-(4-phosphonooxy-phenyl)-propionylamino]-4-(3-phenyl-propylcarbamoyl)-butyric acid] | 9.3 | 
25 | CCC(C)CCCNC(=O)[C@H](CCC(=O)O)NC(=O)[C@H](Cc1ccc(OP(=O)(O)O)cc1)NC(C)=O (stereo partly drawn) [Example 38, [S-(R*,R*)]-4-[2-Acetylamino-3-(4-phosphonooxy-phenyl)-propionylamino]-4-(4-methyl-hexylcarbamoyl)-butyric acid] | 4.1 | 
26 | NC(=O)c1cc(CNC(=O)c2ccc(OP(=O)(O)O)cc2)ccc1OCc1ccccc1 [Example 39, Phosphoric acid mono-[4-(4-benzyloxy-3-carbamoyl-benzylcarbamoyl)-phenyl] ester] | 9.7 | 
27 | Cc1cccc(COc2ccc(CNC(=O)c3ccc(OP(=O)(O)O)cc3)cc2C(N)=O)c1 [Example 40, Phosphoric acid mono-{4-[3-carbamoyl-4-(3-methyl-benzyloxy)-benzylcarbamoyl]-phenyl} ester] | 7 | 
28 | Cc1cc(C)cc(COc2ccc(CNC(=O)c3ccc(OP(=O)(O)O)cc3)cc2C(N)=O)c1 [Example 41, Phosphoric acid mono-{4-[3-carbamoyl-4-(3,5-dimethyl-benzyloxy)-benzylcarbamoyl]-phenyl} ester] | 6.6 | 
29 | CC(C)CCCOc1ccc(CNC(=O)c2ccc(OP(=O)(O)O)cc2)cc1C(N)=O [Example 42, Phosphoric acid mono-{4-[3-carbamoyl-4-(4-methyl-pentyloxy)-benzylcarbamoyl]-phenyl} ester] | ~30 | 
30 | CCC(C)CCCOc1ccc(CNC(=O)c2ccc(OP(=O)(O)O)cc2)cc1C(N)=O (stereo not drawn) [Example 43, Phosphoric acid mono-{4-[3-carbamoyl-4-(4-methyl-hexyloxy) -benzylcarbamoyl]-phenyl} ester] | ~20 | 
